Experimental data: US20220298160A1, “COMPOUNDS USEFUL IN HIV THERAPY” (priority 2019, published 2022)
Read-outs that look alike come from different tables or passages of the source.

Legend:
[1] = test system: HIV pseudotyped virus (NL4-3 provirus), M184V; format: cell-based; conditions: PSV assay; U373 cells expressing human CD4 and CXCR4 or CCR5; luciferase signal after 3 days of culture
[2] = test system: HIV pseudotyped virus (NL4-3 provirus), WT; assay: PSV assay (pseudotyped virus assay), WT; conditions: U373 cells expressing human CD4 and CXCR4 or CCR5, luciferase signal after 3 days of culture
From the text: A pseudotyped virus assay (PSV) was used to assess the potency of the HIV inhibitor. Replication defective virus was produced by co-transfection of a plasmid containing an NL4-3 provirus [containing a mutation in the envelope open reading frame (ORF) and a luciferase reporter gene replacing the nef ORF] and a CMV-promoter expression plasmid containing an ORF for various HIV gp160 envelope clones. The harvested virus was stored at −80 C in small aliquots and the titer of the virus measured to produce a robust signal for antiviral assays.
The PSV assay was performed by using U373 cells stably transformed to express human CD4, the primary receptor for HIV entry and either human CXCR4 or human CCR5 which are the co-receptors required for HIV entry as target cells for infection. […] This dose-range was applied to U373 cells and the pre-made pseudotyped virus added. The amount of luciferase signal produced after 3 days of culture was used to reflect the level of pseudotyped virus infection. An IC50, or the concentration of inhibitor required to reduce PSV infection by 50% from the infection containing no inhibitor was calculated. […] IC50 values were determined from a 10 point dose response curve using 3-4-fold serial dilution for each compound, which spans a concentration range >1000 fold.

[3] = Human immunodeficiency virus 1, NL43, in Homo sapiens, 72 h, read-out: WT IC50 (μM), PSV assay

SMILES | IC50 [1] | IC50 ([2]; read-out: WT IC50, PSV assay) | IC50 [2, 3]
C#C[C@]1(CO)O[C@@H](n2cnc3c(NC(=O)OC(COCCCCC)COC(=O)CCCC)nc(F)nc32)C[C@@H]1O (single isomer, unassigned) [Example 38] | 23.4 nM | 0.007 µM | 
C#C[C@]1(CO)O[C@@H](n2cnc3c(N)nc(F)nc32)C[C@@H]1OC(=O)NCC(=O)OCC [Example 25, ethyl ((((2R,3S,5R)-5-(6-amino-2-fluoro-9H-purin-9-yl)-2-ethynyl-2-(hydroxymethyl)tetrahydrofuran-3-yl)oxy)carbonyl)glycinate] | 1260 nM |  | 1.18 µM
C#C[C@]1(COC(=O)NCCCCCCCCCCCC)O[C@@H](n2cnc3c(N)nc(F)nc32)C[C@@H]1O [Example 3, ((2R,3S,5R)-5-(6-amino-2-fluoro-9H-purin-9-yl)-2-ethynyl-3-hydroxytetrahydrofuran-2-yl)methyl dodecylcarbamate] | 8170 nM |  | 2.01 µM
C#C[C@]1(COC(=O)OC(COC(=O)CCCCCCCC)COC(=O)CCCCCCCC)O[C@@H](n2cnc3c(N)nc(F)nc32)C[C@@H]1O [Example 9, 2-(((((2R,3S,5R)-5-(6-amino-2-fluoro-9H-purin-9-yl)-2-ethynyl-3-hydroxytetrahydrofuran-2-yl)methoxy)carbonyl)oxy)propane-1,3-diyl dinonanoate] | 22.1 nM |  | 0.0049 µM
C#C[C@]1(CO)O[C@@H](n2cnc3c(N)nc(F)nc32)C[C@@H]1OC(=O)OC(COC(C)=O)COC(C)=O [Example 28, 2-(((((2R,3S,5R)-5-(6-amino-2-fluoro-9H-purin-9-yl)-2-ethynyl-2-(hydroxymethyl)tetrahydrofuran-3-yl)oxy)carbonyl)oxy)propane-1,3-diyl diacetate] | 39.2 nM |  | 0.0106 µM
C#C[C@]1(CO)O[C@@H](n2cnc3c(N)nc(F)nc32)C[C@@H]1OC(=O)N(CC)CC [Example 21, (2R,3S,5R)-5-(6-amino-2-fluoro-9H-purin-9-yl)-2-ethynyl-2-(hydroxymethyl)tetrahydrofuran-3-yl diethylcarbamate] | > 25000 nM |  | 14.7 µM
C#C[C@]1(CO)O[C@@H](n2cnc3c(N)nc(F)nc32)C[C@@H]1OC(=O)NCC(=O)OC(C)(C)C [Example 26, tert-butyl ((((2R,3S,5R)-5-(6-amino-2-fluoro-9H-purin-9-yl)-2-ethynyl-2-(hydroxymethyl)tetrahydrofuran-3-yl)oxy)carbonyl)glycinate] | 17300 nM |  | 16.1 µM
C#C[C@]1(CO)O[C@@H](n2cnc3c(N)nc(F)nc32)C[C@@H]1OC(=O)NCC(=O)OCCCCC [Example 27, pentyl ((((2R,3S,5R)-5-(6-amino-2-fluoro-9H-purin-9-yl)-2-ethynyl-2-(hydroxymethyl)tetrahydrofuran-3-yl)oxy)carbonyl)glycinate] | > 25000 nM |  | > 25 µM
C#C[C@]1(CO)O[C@@H](n2cnc3c(N)nc(F)nc32)C[C@@H]1OC(=O)NCCCCC [Example 19, (2R,3S,5R)-5-(6-amino-2-fluoro-9H-purin-9-yl)-2-ethynyl-2-(hydroxymethyl)tetrahydrofuran-3-yl pentylcarbamate] | 9440 nM |  | 1.77 µM
C#C[C@]1(CO)O[C@@H](n2cnc3c(NC(=O)OC(COCCCCCCCCC)COC(=O)CCCCCCCC)nc(F)nc32)C[C@@H]1O (single isomer, unassigned) [Example 35] | 33.1 nM |  | 0.0112 µM
C#C[C@]1(CO)O[C@@H](n2cnc3c(N)nc(F)nc32)C[C@@H]1OC(=O)NC(C)C [Example 20, (2R,3S,5R)-5-(6-amino-2-fluoro-9H-purin-9-yl)-2-ethynyl-2-(hydroxymethyl)tetrahydrofuran-3-yl isopropylcarbamate] | > 25000 nM |  | 10.5 µM
